Source: US5280015A, “2-substituted adenosines and 2-substituted adenosine 5'-carboxamides” (priority 1990, dated 1994)
Where “and” joins values, the source holds several entries; their conditions need not be identical. Identical values can stand only once. Like-named read-outs stand apart in the source and are kept apart here.

What was measured:
A2-adenosine receptors [1] = target: T1, A2-adenosine receptors (Rattus norvegicus, UniProt P30543); test: Inhibition of binding of [3H]NECA to A2-adenosine receptors in rat striatal membranes
T1 construct: rat striatal membranes; from tissue; host or cells: rat striatal membranes
Protocol: (§1) Stock solutions of representative compounds of the present invention in the millimolar concentration range in dimethylsulfoxide were prepared for the binding assays. […] Protein was determined using the BCA (based on the complex with cuprous ions and bicinchoninic acid) protein assay reagents purchased from Pierce Chemical Co., Rockford, Ill.
N^6 -Cyclopentyladenosine was present at 50 nM to inhibit binding of the ligand at A1 -adenosine receptors.

A2-adenosine receptors [2] = target: T1, A2-adenosine receptors; test: Inhibition of binding of [3H]CGS21680 to A2-adenosine receptors in rat striatal membranes
Protocol: as §1
The membrane suspension was then centrifuged at 37,000×g for 20 min at 4° C. The pellet was resuspended in buffer containing 2 IU/ml adenosine deaminase, Type VI from calf intestinal mucosa (Sigma, St. Louis, Mo.) to 20 mg/ml original tissue weight and incubated at 37° C. for 30 min. The membrane homogenate was recentrifuged as before, and the pellet was stored frozen at -70° C. until use.
For competitive binding assays using [^3 H]CGS21680, a volume of 1 ml was used in each 13×100 mm glass tube. […] The mixture was incubated with shaking for 90 min at 24° C. The samples were filtered on a Brandel Cell Harvester (Brandel, Gaithersburg, Md.) with Whatman GF/B filters, and washed rapidly twice with 5 ml of ice cold 50 mM Tris, pH 7.4. Each filter disc was added to 4 ml of scintillation fluid, vortexed, and counted after 6 hours.

A2-adenosine receptors [3] = test: Competitive binding assay in bovine brain using 125I-PAPA-APEC (striatal membranes); conditions: for Ki (A1)/K1 (A2): ratio of Ki at A1-receptors (rat) versus Ki in the 125I-PAPA-APEC assay (bovine)
Protocol: (§2) The filters were washed with three×3 ml aliquots of pH 7.2 buffer containing 50 mM HEPES, 10 mM Mg^+2, and 0.05% CHAPS. The filters were placed in polypropylene tubes and counted in a Packard gamma counter.

A1-adenosine receptors = target: T2, A1-adenosine receptors (Rattus norvegicus, UniProt P25099); test: Competitive binding assay at A1-adenosine receptors, rat cerebral cortex membranes ([3H]PIA or [3H]CHA)
T2 construct: rat cerebral cortex membranes; from tissue; host or cells: rat cerebral cortex membranes
T2 sequence (P25099 1-326): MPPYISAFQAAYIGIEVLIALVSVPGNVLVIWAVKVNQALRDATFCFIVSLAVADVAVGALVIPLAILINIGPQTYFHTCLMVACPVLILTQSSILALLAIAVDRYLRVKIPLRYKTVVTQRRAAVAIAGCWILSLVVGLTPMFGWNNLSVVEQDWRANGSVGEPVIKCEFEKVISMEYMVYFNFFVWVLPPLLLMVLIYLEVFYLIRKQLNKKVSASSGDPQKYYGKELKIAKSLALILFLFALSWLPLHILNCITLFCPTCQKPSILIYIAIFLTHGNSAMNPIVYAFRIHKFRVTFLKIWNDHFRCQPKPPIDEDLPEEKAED

A2 adenosine receptors [4] = target: T3, A2 adenosine receptors (Bos taurus, UniProt E1BKU0); test: Competitive binding assay in bovine brain using 125I-PAPA-APEC (striatal membranes); design: Bovine striatal membranes; from tissue; host or cells: bovine (calf) striatal membranes; conditions: for Ki: bovine striatum, 11, 12 and 14: apparent Ki; for potency in displacing 125I-PAPA-APEC binding: bovine brain A2, relative to compounds with Ki less than 10 nM
Protocol: as §2

[5] = tested on: locomotor activity in NIH mice; test: Locomotor depression by A2 adenosine agonists in mice (Digiscan activity monitor); format: in vivo, mouse; conditions: for ED50: Mus musculus, read-out: ED50, locomotor depression
human platelets = test: Increase in cyclic AMP in human platelets; format: cell-based; conditions: for activation at 1 µM: Platelet, read-out: increase in the level of cyclic AMP
adenosine A2 receptors = target: T4, adenosine A2 receptors (Bos taurus, UniProt E1BKU0); test: FITC-APEC fluorescent binding (association and saturation) to bovine striatal membranes
T4 construct: Striatal tissues obtained from bovine brain; tissue Pel-Freeze Biologicals, Rogers, Ark; host or cells: bovine striatal tissue
Text: Compounds useful in fluorescent binding assays of adenosine A2 receptors in striatal membranes may be used to screen new ligands for affinity at these receptors, thus contributing to the development of new drugs specific or selective to this receptor. […] The following is an example.
Striatal tissues obtained from bovine brain (Pel-Freeze, Biologicals, Rogers, Ark.) were homogenized in 10 volumes of 0.32M sucrose using a Teflon pestle and glass tube (6-7 passes). The homogenate was centrifuged (4° C.) at 579×g (2,000 rpm) for 10 minutes 4° C.). The initial pellet (P1) was discarded and supernatant recentrifuged at 4° C. (16,000 rpm) for 1 hour. The resultant pellet (P2) was resuspended in ice-cold distilled water using a Brinkman Polytron (setting 6-7, for 3 seconds) and centrifuged (4° C.) at 37,059×g for 1 hour. The distilled water supernatant was decanted and the pellet was resuspended in buffer (50 mM TrisHCl, pH 7.4 at 4° C.) and centrifuged a final time for 1 hour. Tissue homogenates were […] at -80° C. for 1-3 days until binding assays were performed. Adenosine deaminase, (Boehringer Mannheim Biochemicals, Indianapolis, Ind.) from calf intestine was included (10 μ/mg protein, specific activity=200μ/mg) in the incubation media to eliminate endogenous adenosine. Protein quantities were assessed by using the Pierce BCA Protein Assay Reagent (Rockford, Ill.). Protein quantities were ~300μg/assay tube.
Fluorescence intensity (counts per second, cps) was measured using a SPEX Fluorolog Model 1680 0.22-m Double Spectrometer with DM3000 software (SPEX Industries, Edison, N.J.). Excitation and emission spectra were determined by comparing FITC-APEC (Compound 18, 1 μM) to buffer ([…] containing […], pH 7.4 or 8.1 at room temperature) or tissue suspension equivalent in concentration to that used for fluorescent ligand binding experiments. Excitation and emission maxima for FITC-APEC were 492 and 516 nm, respectively.
Association studies of FITC-APEC were performed by incubating (room temperature) striatal membranes in polypropylene tubes containing buffer (pH 7.4) and FITC-APEC (50 nM) for 5-120 minutes. […]
Quantitation (see McCabe et al. Faseb J., Vol. 4, pp 2934-2945, 1990) of FITC-APEC binding was performed by generating a standard line relating fluorescence intensity (cps) emitted to known concentrations (0.5-1024 nM) of FITC-APEC, in buffer ("free" ligand) or tissue suspension.
Bound ligand concentrations (μM) were estimated using linear regression analysis and mole quantities of FITC-APEC bound/mg protein were subsequently determined.

A2 adenosine receptors [6] = target: T3, A2 adenosine receptors; test: Displacement of 125I-APNEA from bovine striatum A2 adenosine receptors; format: binding; design: bovine striatum A2 adenosine receptors; from tissue; host or cells: bovine striatum
Text: FITC-APEC binding to bovine striatal membranes was saturable as illustrated by an isotherm representing bound ligand versus increasing concentrations of FITC-APEC (FIG. 1B).

[7] = tested on: striatal A2-adenosine receptors; test: Direct binding of 125I-PAPA-APEC to striatal A2-adenosine receptors in bovine brain; conditions: HPLC peak B
[8] = target: striatal A2-adenosine receptors; conditions: Barrington et al., 1989, cited from earlier work
[9] = read-out: Ki, inhibition of binding of 125I-PAPA-APEC at A2-receptors
[10] = read-out: Ki, inhibition of binding of [3H]CGS21680 at A2-receptors
[11] = rat, [3H]PIA, read-out: Ki, inhibition of binding of [3H]PIA at A1-receptors
[12] = bovine striatal membranes, fluorescence, 90 min, room temperature

T3 sequence (E1BKU0 1-401): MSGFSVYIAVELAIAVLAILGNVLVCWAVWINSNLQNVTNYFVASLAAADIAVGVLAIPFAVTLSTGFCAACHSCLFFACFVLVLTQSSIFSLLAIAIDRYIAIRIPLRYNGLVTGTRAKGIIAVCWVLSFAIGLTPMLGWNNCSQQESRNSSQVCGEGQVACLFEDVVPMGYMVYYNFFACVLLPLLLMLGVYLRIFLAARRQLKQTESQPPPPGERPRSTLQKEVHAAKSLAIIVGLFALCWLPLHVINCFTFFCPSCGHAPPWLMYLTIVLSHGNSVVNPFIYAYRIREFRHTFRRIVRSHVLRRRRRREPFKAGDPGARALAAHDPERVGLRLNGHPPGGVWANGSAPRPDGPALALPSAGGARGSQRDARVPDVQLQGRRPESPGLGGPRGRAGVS
T4 sequence (E1BKU0 1-401): as above
T1 sequence (P30543 whole entry): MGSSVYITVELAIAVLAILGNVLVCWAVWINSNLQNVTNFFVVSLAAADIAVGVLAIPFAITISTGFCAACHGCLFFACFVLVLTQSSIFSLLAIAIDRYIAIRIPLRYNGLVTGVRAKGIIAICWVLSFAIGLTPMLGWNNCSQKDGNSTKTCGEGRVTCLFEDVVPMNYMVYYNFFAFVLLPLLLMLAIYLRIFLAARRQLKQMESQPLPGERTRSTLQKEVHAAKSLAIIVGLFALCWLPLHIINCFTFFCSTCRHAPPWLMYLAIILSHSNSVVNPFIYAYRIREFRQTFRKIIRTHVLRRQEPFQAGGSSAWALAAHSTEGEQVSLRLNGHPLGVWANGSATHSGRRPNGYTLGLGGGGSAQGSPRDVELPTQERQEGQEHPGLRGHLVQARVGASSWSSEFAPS

Work on `NCCNC(=O)Cc1ccc(NC(=O)Cc2ccc(Nc3ncnc4c3ncn4[C@@H]3O[C@H](CO)[C@@H](O)[C@H]3O)cc2)cc1` [ADAC, reference compound] yielded a Ki (A2-adenosine receptors [1]) of 0.21 µM and a Ki (A2-adenosine receptors [2]) of 0.218 ± 0.028 µM.
For `CCNC(=O)[C@H]1O[C@@H](n2cnc3c(N)nc(NCCc4ccc(CCC(=O)OC)cc4)nc32)[C@H](O)[C@@H]1O` [Compound 2], the “Ki (A1)/K1 (A2)” value (A2-adenosine receptors [3]) was 370, the Ki (A2-adenosine receptors [1]) was 0.0175 ± 0.0016 µM and the Ki (A1-adenosine receptors; rat, [3H]N6-cyclohexyladenosine (footnote c), read-out: Ki, inhibition of binding at A1-receptors using [3H]N6-cyclohexyladenosine) was 2.26 ± 0.44 µM. The Ki (A2 adenosine receptors [4]; [9]) was < 0.01 µM and 0.0061 µM and the Ki (A2-adenosine receptors [2]; [10]) was 0.005 ± 0.002 µM.
With `CCNC(=O)[C@H]1O[C@@H](n2cnc3c(N)nc(NCCc4ccc(CCC(=O)NCCN)cc4)nc32)[C@H](O)[C@@H]1O` [Compound 3] the “Ki (A1)/K1 (A2)” value (A2-adenosine receptors [3]) was 16, the Ki (A2-adenosine receptors [1]; read-out: Ki, inhibition of binding of [3H]NECA at A2-receptors, rat striatum, 11, 12 and 14: apparent Ki) was 0.00573 ± 0.00052 µM and the ED50 ([5]; ip) was 16 µg/kg. The “locomotor depression” value ([5]; mice, i.p., horizontal activity and total distance traveled) was “potent locomotor depressant in mice in a dose-dependent manner”, the Ki (A1-adenosine receptors; [11]) was 0.235 ± 0.054 µM and the Ki (A2 adenosine receptors [4]; [9]) was < 0.01 µM and 0.0061 µM. The Ki (A2-adenosine receptors [2]; [10]) was 0.012 ± 0.003 µM.
For `CCNC(=O)[C@H]1O[C@@H](n2cnc3c(N)nc(NCCc4ccc(CCC(=O)NCCNC(=O)Cc5ccc(N)cc5)cc4)nc32)[C@H](O)[C@@H]1O` [Compound 6], the “Ki (A1)/K1 (A2)” value (A2-adenosine receptors [3]) was 31, the Ki (A1-adenosine receptors; [11]) was 1.34 µM and the “potency in displacing 125I-PAPA-APEC binding” value (A2 adenosine receptors [4]) was “less potent”. It also gave a Ki (A2 adenosine receptors [4]; [9]) of 0.043 ± 0.014 µM, a Ki (A2-adenosine receptors [2]; [10]) of 0.028 ± 0.007 µM and an activation at 1 µM (human platelets; human platelets, 10^-6 M) of 40%. The “increase in cyclic AMP” value (human platelets; human platelets, 1 nM to 10 μM) was “dose dependent increase in cyclic AMP”.
For `CCNC(=O)[C@H]1O[C@@H](n2cnc3c(N)nc(NCCc4ccc(CCC(=O)NCCNC(=O)Cc5ccc(NC(=O)OCc6ccccc6)cc5)cc4)nc32)[C@H](O)[C@@H]1O` [Compound 7], the “Ki (A1)/K1 (A2)” value (A2-adenosine receptors [3]) was 45, the Ki (A2-adenosine receptors [1]) was 0.00559 ± 0.00099 µM and the Ki (A1-adenosine receptors; [11]) was 0.278 ± 0.0187 µM. For the same molecule, the Ki (A2 adenosine receptors [4]; [9]) was < 0.01 µM and 0.0062 µM and the Ki (A2-adenosine receptors [2]; [10]) was 0.037 ± 0.005 µM.
With `CCNC(=O)[C@H]1O[C@@H](n2cnc3c(N)nc(NCCc4ccc(CCC(=O)NCCNC(=S)Nc5cccc(N=C=S)c5)cc4)nc32)[C@H](O)[C@@H]1O` [Compound 11] the “Ki (A1)/K1 (A2)” value (A2-adenosine receptors [3]) was 11, the Ki (A2-adenosine receptors [1]) was 0.00282 ± 0.00038 µM and the Ki (A1-adenosine receptors) was 0.0697 ± 0.0079 µM. For the same molecule, the Ki (A2 adenosine receptors [4]; Ki, inhibition of binding of 125I-PAPA-APEC at A2-receptors) was < 0.01 µM and 0.0062 µM and the Ki (A2-adenosine receptors [2]) was 0.022 ± 0.007 µM.
With `CCNC(=O)[C@H]1O[C@@H](n2cnc3c(N)nc(NCCc4ccc(CCC(=O)NCCCCNC(=O)c5ccc(CF)cc5)cc4)nc32)[C@H](O)[C@@H]1O` [Compound 16] the “Ki (A1)/K1 (A2)” value (A2-adenosine receptors [3]) was 57, the “locomotor depression (% decrease in horizontal activity from vehicle control)” value ([5]; ip, […]) was 50±4% and the Ki (A1-adenosine receptors; [11]) was 1.45 ± 0.067 µM. The “potency in displacing 125I-PAPA-APEC binding” value (A2 adenosine receptors [4]) was “less potent”, the Ki (A2 adenosine receptors [4]; [9]) was 0.0254 ± 0.0076 µM and the Ki (A2-adenosine receptors [2]; [10]) was 0.0189 ± 0.0049 µM.
For `CCNC(=O)[C@H]1O[C@@H](n2cnc3c(N)nc(NCCc4ccc(CCC(=O)NCCNC(=S)Nc5ccc(-c6c7ccc(=O)cc-7oc7cc(O)ccc67)c(C(=O)O)c5)cc4)nc32)[C@H](O)[C@@H]1O` [Compound 18], the “affinity at A2-adenosine receptors” value (A2-adenosine receptors [3]; fluorescent probes, derivatives in general) was “high affinity”, the “saturability of binding” value (adenosine A2 receptors; bovine striatal membranes, 16-256 nM) was “saturable” and the Bmax (adenosine A2 receptors; [12]) was 2.26 pmol/mg protein. For the same molecule, the Kd (adenosine A2 receptors; [12]) was 0.0546 µM, the “time to binding equilibrium” value (adenosine A2 receptors; bovine striatum, room temperature, FITC-APEC 50 nM) was no more than 90 min and the Ki (A2 adenosine receptors [4]; [9]) was 0.0598 ± 0.028 µM. The Ki (A2 adenosine receptors [6]) was 0.0598 ± 0.028 µM.
In the case of `CCNC(=O)[C@H]1O[C@@H](n2cnc3c(N)ncnc32)[C@H](O)[C@@H]1O` [NECA, 5'-N-ethylcarboxamidoadenosine, reference compound], the ED50 ([5]; ip) is reported as 2 µg/kg and the activation at 1 µM (human platelets; Homo sapiens) is reported as 35%.
For `CCNC(=O)[C@H]1O[C@@H](n2cnc3c(N)nc(NCCc4ccc(CCC(=O)NCCNC(=O)Cc5ccc(N)c([125I])c5)cc4)nc32)[C@H](O)[C@@H]1O` [^125 I-PAPA-APEC], the “specific binding and A2 receptor pharmacology” value [7] is listed as “display specific binding and the appropriate A2 receptor pharmacology”, the Kd ([8]; bovine brain striatum) is listed as 0.0014 µM and the “degree of specific binding” value ([8]; striatal A2-adenosine receptors, bovine brain) is listed as 60-80%.
